Source: US20240382446A1, “METHOD FOR IMPROVING FEED INTAKE” (OREXA B.V., priority 2021, published 2024)
Where two headings read alike, the source gives them in different places.

How the values were obtained:
[1] = Weaning of mice with feed comprising various local anesthetics (body weight); assay type: in vivo
Method: Litters of mice are weaned on day 18 after birth. The siblings are divided over 2 groups (placebo and active) with group sizes of 7-10 siblings.
The pups are offered daily ad libitum food in which a local anesthetic is mixed. Body weight is measured daily.
In TABLES I-IV the body weight is depicted as percentage increase on day 14 in comparison to baseline, as a result of dosing lidocaine (comparative), prilocaine (comparative), bupivacaine (comparative) and benzocaine (according to the invention) to the mice. The baseline is the weight of the mouse at the beginning of the experiment. Placebo and experimental scores are statistically compared by means of student-t tests (* p<0,05; ** p<0,01; *** p<0,001). Doses are indicated on the x-axis and are mg per day for the group of siblings.

[2] = cited from earlier work
[3] = Weaning of piglets with feed comprising various amounts of benzocaine; assay type: in vivo
Method: Six groups of 21 piglets were treated.
They were fed with controlled amounts of feed (see table V).
Before administration, the food pellets were drenched in water for 30 min and benzocaine (0 g (3×), 5 g, 12,75 g or 17 g, corresponding to a dose of 0, 30, 75 and 100 mg per day per pig, respectively) was added and mixed. The group of piglets receiving feed with 0% benzocaine is referred to as the placebo group.
Amounts of feed consumed were recorded. Piglets were weighed on day 1 (baseline), 4, and 8.

[4] = mice weaned day 18, anesthetic mixed in ad libitum food, day 14 vs baseline
[5] = benzocaine treated pigs vs placebo group

In the case of CCCCN1CCCCC1C(=O)Nc1c(C)cccc1C (stereo not drawn) [bupivacaine], the “growth of the mice (body weight increase) in comparison to placebo” value [1, 4] is reported as “either inactive (low dose) or inhibit the growth of the mice”.
For CCOC(=O)c1ccc(N)cc1 [benzocaine], the solubility ([2]; dilute acids) is listed as “more soluble”, the solubility ([2]; ethanol, chloroform, and ethyl ether) is listed as “very soluble” and the solubility ([2]; water) is listed as “sparingly soluble”. For the same molecule, the “growth of the mice (body weight increase) in comparison to placebo” value ([1]; 200 mg per day for the group of siblings, day 14) was “inhibits the growth”, the “growth of the mice (body weight increase) in comparison to placebo” value ([1]; low doses 25, 50 and 100 mg per day for the group of siblings, day 14) was “increases the growth” and the fouling and diarrhea [3, 5] was “less fouling and less diarrhea”. The “general condition of the pigs” value [3, 5] was “better than that of the placebo group”, the “feed intake relative to placebo” value ([3]; piglets, after day 4, 30 mg and 75 mg benzocaine per day) was “increase feed intake” and the “growth of lightest vs heaviest 50% of the animals” value ([3]; piglets, day 7, group analysis vs placebo) was “increase of growth in the benzocaine-fed group primarily takes place with the light weight animals”. For the same molecule, the “feed intake relative to placebo” value ([3]; piglets, first 3 days) was “initial reduction of the feed intake”, the optimal dose ([3]; piglets, per pig) was 75 mg per day and the “feed conversion (feed needed per weight gain)” value ([3]; piglets, with increasing benzocaine dosing, placebo about 12,8 kg feed per 1 kg) was 2,6 kg of feed per 1 kg of meat.
In the case of CCN(CC)CC(=O)Nc1c(C)cccc1C [Lidocaine, lidocaine], the “growth of the mice (body weight increase) in comparison to placebo” value [1, 4] is reported as “either inactive (low dose) or inhibit the growth of the mice”.
In the case of CCCNC(C)C(=O)Nc1ccccc1C (stereo not drawn) [prilocaine], the “growth of the mice (body weight increase) in comparison to placebo” value [1, 4] is reported as “either inactive (low dose) or inhibit the growth of the mice”.
